In patent US20240245677A1, “SELECTED COMPOUNDS FOR TARGETED DEGRADATION OF BRD9” (C4 THERAPEUTICS, INC., priority 2021, published 2024):
Where two headings read alike, the source gives them in different places.

Target: T1, BRD9 (Homo sapiens, UniProt Q9H8M2)
T1 sequence (Q9H8M2 1-597): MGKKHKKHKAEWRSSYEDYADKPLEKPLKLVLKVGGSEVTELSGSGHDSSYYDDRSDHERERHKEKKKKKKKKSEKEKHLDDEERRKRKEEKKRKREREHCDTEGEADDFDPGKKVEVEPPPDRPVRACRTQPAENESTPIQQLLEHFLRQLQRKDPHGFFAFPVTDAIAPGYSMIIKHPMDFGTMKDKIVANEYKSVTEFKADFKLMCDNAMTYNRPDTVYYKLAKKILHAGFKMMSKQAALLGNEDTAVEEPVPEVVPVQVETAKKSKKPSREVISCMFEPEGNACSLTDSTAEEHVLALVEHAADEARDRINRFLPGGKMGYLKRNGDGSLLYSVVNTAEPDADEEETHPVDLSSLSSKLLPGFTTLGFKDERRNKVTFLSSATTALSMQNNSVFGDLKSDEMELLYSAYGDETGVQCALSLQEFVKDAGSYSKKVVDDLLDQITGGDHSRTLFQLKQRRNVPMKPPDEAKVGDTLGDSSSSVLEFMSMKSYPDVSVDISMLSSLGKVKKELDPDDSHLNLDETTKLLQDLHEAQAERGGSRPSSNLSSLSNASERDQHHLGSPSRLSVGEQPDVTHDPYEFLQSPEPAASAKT
Test: BRD9 HiBiT degradation assay in 293T.166 (HEK293T.166) cells
Format: cell-based
Design: endogenously expressing BRD9 with HiBiT fusion tag via CRISPR; host or cells: HEK293T.166 (293T.166, BRD9-HiBiT HEK293, LgBiT by lentivirus)
Procedure: Selected compounds were tested in a BRD9 degradation assay using the HiBit Method.
Dulbecco's modified Eagle medium (DMEM) without phenol red and fetal bovine serum (FBS) were purchased from Gibco (Grand Island, NY, USA). Nano-Glo® HiBiT Lytic Assay System was purchased from Promega (Madison, WI, USA). 293T.166 (BRD9-HiBiT) cell line, endogenously expressing BRD9 with HiBiT fusion tag via CRISPR and ectopically expressing LgBiT tag, was purchased from Promega (Madison, WI, USA). 293T.167 (BRD7-HiBiT) cell line, endogenously expressing BRD7 with HiBiT fusion tag via CRISPR and ectopically expressing LgBiT tag, was purchased from Promega (Madison, WI, USA). 293T.92 (BRD4-HiBiT) cell line, endogenously expressing BRD4 with HiBiT fusion tag via CRISPR and ectopically expressing LgBiT tag, was generated in-house. Cell culture flasks and 384-well microplates were acquired from VWR (Radnor, PA, USA).
BRD9 degradation was determined based on quantification of luminescent signal using Nano-Glo® HiBiT Lytic Assay kit. Test compounds were added to the 384-well plate from a top concentration of 10 μM with 11 points, half log titration in duplicates. 293T.166 cells were added into 384-well plates at a cell density of 10,000 cells per well. The plates were kept at 37° C. with 5% CO2 for 2 hours. BRD7 and BRD4 degradation was similarly determined with 293T.167 cells and 293T.92 cells, respectively. The cells treated in the absence of the test compound were the negative control and the cells without Nano-Glo® HiBiT Lytic reagent were the positive control. After 2-hour incubation, Nano-Glo® HiBiT Lytic Assay reagents were added to the cells. Luminescence was acquired on EnVision® Multilabel Reader (Catalog No. 2104-0010, Perkin Elmer Inc., Dumfries, VA, USA).
This assay evaluates the degradation of BRD9 induced by treatment with Compound 1 or Compound 2 as measured by luminescence using Nano-Glo® HiBiT Lytic Assay System in HEK293 cells CRISPR-edited to endogenously express HiBiT tagged BRD9 and exogenously express LgBiT protein.
Nano-Glo® HiBiT Lytic Assay System was purchased from Promega (Catalog No. N3050, Madison, WI, USA). BRD9-HiBiT HEK293 cells were purchased from Promega (Catalog No. CS302348, Madison, WI, USA). The cells were maintained in Dulbecco's modified Eagle medium (DMEM) without phenol red (Catalog No. 12430112, ThermoFisher Scientific, Waltham, MA, USA) supplemented with 10% fetal bovine serum (FBS) (Catalog No. 16000-044, Gibco, Grand Island, NY, USA) at 37° C. in an atmosphere of 5% CO2 in air. The HiBiT polypeptide tag was introduced into the C-terminus of the endogenous BRD9 locus by CRISPR-Cas9 and the LgBiT protein was introduced via Lentiviral infection to produce the modified HEK293T.166 cell line. The HiBiT polypeptide and LgBiT protein allow reconstitution of NanoBiT enzyme in the cells. The Nano-Glo® HiBiT Lytic Substrate was then added and activated by the NanoBiT enzyme following cell lysis to produce a luminescent signal that is directly proportional to the amount of HiBiT-tagged BRD9.
The HEK293T.166 cells were routinely sub-cultured to maintain cell density between 30-80% confluence, not to exceed 20 passages. Cells were washed with PBS pH 7.4 (Catalog No. 10010049, ThermoFisher Scientific, Waltham, MA, USA), trypsinized for 5 minutes at 37° C., and resuspended in fresh growth media without phenol red. An aliquot was diluted 2× with Trypan Blue solution 0.4% (Catalog No. 15250061, ThermoFisher Scientific, Waltham, MA, USA) and cell count determined. Cell concentration was adjusted with growth media without phenol red to 3.3×10^5 cells/mL.
Compound 1 or Compound 2 was prepared by dissolving neat compounds in DMSO (Catalog No. D8418, Sigma-Aldrich, Inc., St. Louis, MO, USA) to generate 10 mM stock solution and stored at −20° C. […]

Compound: COc1cc(-c2cn(C)c(=O)c(C)c2C)cc(OC)c1CN1CC[C@H](N2CCN(c3ccc(N[C@H]4CCC(=O)NC4=O)cc3F)CC2)C(F)(F)C1 [Compound 1, (S)-3-((4-(4-((S)-1-(2,6-dimethoxy-4-(1,4,5-trimethyl-6-oxo-1,6-dihydropyridin-3-yl)benzyl)-3,3-difluoropiperidin-4-yl)piperazin-1-yl)-3-fluorophenyl)amino)-piperidine-2,6-dione]
- % BRD9 Remaining Relative to Vehicle Control at 2 hr, Mean (0.010 nM): 92.3%
- % BRD9 Remaining Relative to Vehicle Control at 2 hr, Mean (0.032 nM): 96.4%
- % BRD9 Remaining Relative to Vehicle Control at 2 hr, Mean (0.100 nM): 91.6%
- % BRD9 Remaining Relative to Vehicle Control at 2 hr, Mean (0.315 nM): 86.4%
- % BRD9 Remaining Relative to Vehicle Control at 2 hr, Mean (0.997 nM): 76.7%
- % BRD9 Remaining Relative to Vehicle Control at 2 hr, Mean (3.15 nM): 51.6%
- % BRD9 Remaining Relative to Vehicle Control at 2 hr, Mean (10.0 nM): 21.7%
- % BRD9 Remaining Relative to Vehicle Control at 2 hr, Mean (31.7 nM): 7.9%
- % BRD9 Remaining Relative to Vehicle Control at 2 hr, Mean (100 nM): 5.0%
- % BRD9 Remaining Relative to Vehicle Control at 2 hr, Mean (316 nM): 5.7%
- % BRD9 Remaining Relative to Vehicle Control at 2 hr, Mean (999 nM): 4.8%
- DC50 (293T.166 cells, 2.0 hours, read-out: HiBiT-Degradation 293T.166 BRD9 2.0 hours (DC50)): < 100 nM
- Emax (BRD9-HiBiT, 293T.166 cells, 2 hours, read-out: Mean Emax (%) ± SD): 4.14 ± 1.15%
- Dmax (HEK293T.166 cells, 2-hour treatment, read-out: maximal degradation of BRD9): > 95%
- DC50 (summary statement, read-out: DC50 against BRD9): 2 to 75 nM
